Source: ChEMBL document CHEMBL1156505, “Allosteric transinhibition by specific antagonists in CCR2/CXCR4 heterodimers” (J Biol Chem, 2007)
The source made the active and inactive calls. The calls are words filed in the database; no cut-off is given here.

Columns and labels:
[1] = molecular target: T1, C-C chemokine receptor type 2 (Homo sapiens, UniProt P41597); experiment: Displacement of [125I]MCP1 from CCR2/CXCR4 expressed in CHOK1 cells; type: cell-based; conditions: CHO-K1; concentration not given here
Target sequence in this assay (P41597 whole entry, looked up): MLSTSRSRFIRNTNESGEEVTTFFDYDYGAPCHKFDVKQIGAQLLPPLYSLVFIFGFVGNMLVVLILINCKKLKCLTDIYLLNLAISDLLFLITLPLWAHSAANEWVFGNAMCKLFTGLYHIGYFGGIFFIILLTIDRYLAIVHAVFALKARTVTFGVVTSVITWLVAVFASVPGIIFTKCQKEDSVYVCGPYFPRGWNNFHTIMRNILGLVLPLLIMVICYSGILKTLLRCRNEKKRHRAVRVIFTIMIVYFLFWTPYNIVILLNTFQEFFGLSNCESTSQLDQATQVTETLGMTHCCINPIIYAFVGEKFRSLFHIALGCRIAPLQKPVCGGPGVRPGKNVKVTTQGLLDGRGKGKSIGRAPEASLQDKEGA

[2] = molecular target: T1, C-C chemokine receptor type 2; experiment: Displacement of [125I]SDF1alpha from CCR2/CXCR4 expressed in CHOK1 cells; type: cell-based; conditions: CHO-K1; concentration not given here
Target sequence in this assay (P41597 whole entry, looked up): as above

[3] = molecular target: T1, C-C chemokine receptor type 2; experiment: biochemical
Target sequence in this assay (P41597 whole entry): as the sequence (P41597 whole entry, looked up) above
Description: Displacement of [125I]MCP1 from CCR2 expressed in CHOK1 cells

[4] = species on record: Homo sapiens; experiment: Inhibition of migration of human CD4+ lymphoblasts towards MCP1 by chemotaxis assay; type: functional

Row | SMILES | inhibition [1] [%] | inhibition [2] [%] | IC50 [3] [nM] | Activity [4]
1 | c1cc(CN2CCCNCCNCCCNCC2)ccc1CN1CCCNCCNCCCNCC1 | 36.2 | 87.1 |  | 
2 | Cc1ccc(-c2ccc3c(c2)C=C(C(=O)Nc2ccc(C[N+](C)(C)C4CCOCC4)cc2)CCC3)cc1 | 90.7 | 38.1 | 0.25 | Active
